Experimental data published in patent US9090593B2, “Bicyclic compounds as Pim inhibitors” (AMGEN INC., priority 2010, dated 2015).
pIC50: −log10 of the molar value. Read-outs that look alike come from different tables or passages of the source.

Columns and labels:
[1] = target: T1, full length recombinant Pim-2 protein (Homo sapiens, UniProt Q9P1W9); experiment: Pim-2 enzyme assay (HTRF, phosphorylation of biotinylated-BAD (S112) peptide); type: biochemical; details: enzyme assay, Pim-2; read-out: Pim2_IC50
T1 construct: by full length recombinant Pim-1, Pim-2, or Pim-3 protein; hexahistidine tag followed by a thrombin cleavage site (N); made in house; host or cells: Sf9 (baculovirus) or E. coli (pET28)
T1 sequence (Q9P1W9 whole entry): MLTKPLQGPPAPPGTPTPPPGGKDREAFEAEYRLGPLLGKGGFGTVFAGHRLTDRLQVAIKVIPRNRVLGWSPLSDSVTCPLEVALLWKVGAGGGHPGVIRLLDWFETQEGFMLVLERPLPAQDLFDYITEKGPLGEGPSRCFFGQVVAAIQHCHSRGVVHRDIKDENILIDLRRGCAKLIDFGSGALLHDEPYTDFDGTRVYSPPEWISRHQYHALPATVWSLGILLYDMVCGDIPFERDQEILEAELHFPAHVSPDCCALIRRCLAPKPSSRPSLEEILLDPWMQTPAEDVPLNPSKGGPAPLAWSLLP
In short: (§1)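 Inhibition is reported as IC50 from a 4-parameter logistic fit of percent-of-control HTRF signal, which tracks phospho-BAD (S112) formed by full-length human Pim-1 or Pim-2. Reactions ran in 60 mM Hepes, pH 7.0, 0.05% BSA, 2 mM DTT.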

[2] = target: T2, Pim-1 stably transfected into the U2OS human osteogenic sarcoma line (Homo sapiens, UniProt P11309); experiment: Pim cell assay, phospho-BAD normalized against total BAD, U2OS stably transfected with Pim-1; type: cell-based; details: read-out: Pim1_Cell_IC50
T2 construct: expressed in transfected cells; host or cells: U2OS human osteogenic sarcoma line
T2 sequence (P11309 whole entry): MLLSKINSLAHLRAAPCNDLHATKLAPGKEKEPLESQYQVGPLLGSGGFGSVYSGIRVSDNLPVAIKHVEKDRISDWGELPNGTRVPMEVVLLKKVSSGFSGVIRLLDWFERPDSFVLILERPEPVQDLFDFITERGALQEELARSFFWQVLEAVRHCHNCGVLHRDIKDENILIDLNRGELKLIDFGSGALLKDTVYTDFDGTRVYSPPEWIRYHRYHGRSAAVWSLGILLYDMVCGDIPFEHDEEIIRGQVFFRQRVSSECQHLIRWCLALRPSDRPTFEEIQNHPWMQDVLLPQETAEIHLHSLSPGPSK
In short: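 U2OS cells stably expressing Pim-1 or Pim-2 were plated overnight at 37 °C, then dosed over a 10-point curve (final 0.3% DMSO; DMSO alone as high control). Lysates assayed for phospho- and total BAD by Meso Scale immunoassay; % phosphoprotein = (2×phospho)/(phospho+total)×100.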

[3] = target: T3, full length recombinant Pim-1 protein (Homo sapiens, UniProt P11309); experiment: Pim-1 enzyme assay (HTRF, phosphorylation of biotinylated-BAD (S112) peptide); type: biochemical; details: enzyme assay, Pim-1; read-out: Pim_1_IC50
T3 construct: by full length recombinant Pim-1, Pim-2, or Pim-3 protein; hexahistidine tag followed by a thrombin cleavage site (N); made in house; host or cells: Sf9 (baculovirus) or E. coli (pET28)
T3 sequence (P11309 whole entry): as above
In short: as §1

[4] = target: T4, full length recombinant Pim-3 protein (Homo sapiens, UniProt Q86V86); experiment: Pim-3 enzyme assay (HTRF, phosphorylation of biotinylated-BAD (S112) peptide); type: biochemical; details: read-out: Pim3 IC50
T4 construct: by full length recombinant Pim-1, Pim-2, or Pim-3 protein; purchased Millipore (UK)
Text: Pim-3 was purchased from Millipore (UK).
The phosphorylation of biotinylated-BAD (S112) peptide by full length recombinant Pim-1, Pim-2, or Pim-3 protein was detected with streptavidin:Allophycocyanin (APC) conjugate and a europium (Eu) labeled antibody directed against phosphorylated-BAD (S112). […] The fluorescence is directly proportional to the amount of phosphorylated BAD peptide present in the reaction.
A reference compound was included on each assay plate in order to validate that plate; on one plate of every assay run, two additional reference compounds were included.
The final buffer conditions were as follows: 60 mM Hepes, pH 7.0, 0.05% BSA, 2 mM DTT. […] The reaction was stopped by the addition of 3 mM EDTA, and fluorescence was measured by an HTRF® Rubystar microplate reader. For each plate, percent of control (POC) values were calculated for each well. Values for the IC50 IP were estimated using a standard 4-parameter logistic model.

[5] = U2OS cells stably transfected with Pim-1, phospho-BAD, high dose […]

pIC50 [1] | pIC50 [2, 5] | pIC50 [3] | pIC50 [4] | pIC50 [2] | Structure (SMILES)
6.23 |  | 7.72 | 7.17 | 6.04 | NC1CCN(c2cncc(-c3c[nH]c4ccc(-c5c(F)cccc5F)nc34)c2)CC1 [Example 32, 1-(5-(5-(2,6-difluorophenyl)-1H-pyrrolo[3,2-b]pyridin-3-yl)pyridin-3-yl)piperidin-4-amine]
6.74 | 5.44 | 8.15 | 8.40 |  | NC1CCN(c2cncc(-c3n[nH]c4ccc(-c5cc6ccccc6nc5O)cc34)n2)CC1 [Example 54, 3-(3-(6-(4-amino-1-piperidinyl)-2-pyrazinyl)-1H-indazol-5-yl)-2-quinolinol]
6.52 | 6.06 | 7.55 | 7.31 |  | NC1CCN(c2cncc(-c3n[nH]c4ccc(N5CCOCC5)cc34)n2)CC1 [Example 89, 1-(6-(5-(4-morpholinyl)-1H-indazol-3-yl)-2-pyrazinyl)-4-piperidinamine]
6.82 | 6.06 | 8.05 | 8.22 |  | CN(C)c1cccc(-c2ccc3[nH]nc(-c4cncc(N5CCC(N)CC5)n4)c3c2)c1 [Example 108, 1-(6-(5-(3-(dimethylamino)phenyl)-1H-indazol-3-yl)-2-pyrazinyl)-4-piperidinamine]
6.82 | 6.11 | 8.10 | 7.64 |  | NC1CCN(c2cncc(-c3n[nH]c4ccc(-c5ccnc6cc(F)ccc56)cc34)n2)CC1 [Example 110, 1-(6-(5-(7-fluoro-4-quinolinyl)-1H-indazol-3-yl)-2-pyrazinyl)-4-piperidinamine]
< 5.52 |  | 6.07 | 5.75 |  | Nc1ccc2[nH]cc(-c3cncc(N4CCC(N)CC4)n3)c2c1 [Example 233, 3-(6-(4-aminopiperidin-1-yl)pyrazin-2-yl)-1H-indol-5-amine]
5.59 |  | 6.79 | 6.46 |  | CCC(=O)Nc1ccc2[nH]cc(-c3cncc(N4CCC(N)CC4)n3)c2c1 [Example 234, N-(3-(6-(4-aminopiperidin-1-yl)pyrazin-2-yl)-1H-indol-5-yl)propionamide]
5.73 |  | 6.92 | 6.82 |  | NC1CCN(c2cncc(-c3c[nH]c4ccc(NC(=O)c5ccccc5)cc34)n2)CC1 [Example 235, N-(3-(6-(4-aminopiperidin-1-yl)pyrazin-2-yl)-1H-indol-5-yl)benzamide]
6.49 |  | 6.71 | 6.91 |  | NC1CCN(c2cncc(-c3c[nH]c4ccc(C(=O)O)cc34)n2)CC1 [Example 237, 3-(6-(4-aminopiperidin-1-yl)pyrazin-2-yl)-1H-indole-5-carboxylic acid]
6.12 |  | 6.97 | 6.51 |  | NC(=O)c1ccc2[nH]cc(-c3cncc(N4CCC(N)CC4)n3)c2c1 [Example 238, 3-(6-(4-aminopiperidin-1-yl)pyrazin-2-yl)-1H-indole-5-carboxamide]
< 5.52 |  | 6.78 | 6.46 |  | CC(C)NC(=O)c1ccc2[nH]cc(-c3cncc(N4CCC(N)CC4)n3)c2c1 [Example 239, 3-(6-(4-aminopiperidin-1-yl)pyrazin-2-yl)-N-isopropyl-1H-indole-5-carboxamide]

Continued, molecule first:

Structure (SMILES) | pIC50 [1] | pIC50 [2, 5] | pIC50 [3] | pIC50 [4] | pIC50 [2]
Fc1cccc(F)c1-c1ccc2[nH]nc(-c3cncc(O[C@@H]4CNCC[C@H]4F)n3)c2c1 (single isomer, unassigned) [Example 19, 5-(2,6-difluorophenyl)-3-(6-(trans-4-fluoropiperidin-3-yloxy)pyrazin-2-yl)-1H-indazole] | 7.55 | 6.60 | 8.30 | 8.15 | 
COc1nc2ccccc2cc1-c1ccc2[nH]nc(-c3cncc(N4CCC(N)CC4)n3)c2c1 [Example 2, 1-(6-(5-(2-methoxyquinolin-3-yl)-1H-indazol-3-yl)pyrazin-2-yl)piperidin-4-amine] | 6.11 | 5.58 | 7.55 | 7.21 | 
Nc1cc(-c2ccc3[nH]nc(-c4cncc(N5CCC(N)CC5)n4)c3c2)ccc1N1CCOCC1 [Example 105, 1-(6-(5-(3-amino-4-(4-morpholinyl)phenyl)-1H-indazol-3-yl)-2-pyrazinyl)-4-piperidinamine] | 7.37 | 6.32 | 8.70 | 8.30 | 
Nc1nccc(N2CCc3ccc(-c4ccc5[nH]nc(-c6cncc(N7CCC(N)CC7)n6)c5c4)cc32)n1 [Example 113, 4-(6-(3-(6-(4-amino-1-piperidinyl)-2-pyrazinyl)-1H-indazol-5-yl)-2,3-dihydro-1H-indol-1-yl)-2-pyrimidinamine] | 6.26 | < 4.80 | 7.77 | 7.48 | 
Fc1ncc(Cl)cc1-c1ccc2[nH]nc(-c3cncc(O[C@@H]4CCCNC4)n3)c2c1 [Example 117, 5-(5-chloro-2-fluoro-3-pyridinyl)-3-(6-((3R)-3-piperidinyloxy)-2-pyrazinyl)-1H-indazole] | 7.18 | 6.12 | 7.74 | 8.30 | 
CC(C)Oc1cncc(-c2ccc3[nH]nc(-c4cncc(O[C@@H]5CCCNC5)n4)c3c2)c1 [Example 120, 5-(5-(1-methylethoxy)-3-pyridinyl)-3-(6-((3R)-3-piperidinyloxy)-2-pyrazinyl)-1H-indazole] | 7.01 | 6.84 | 8.52 | 8.10 | 
Fc1cccnc1-c1ccc2[nH]nc(-c3cncc(O[C@@H]4CCCNC4)n3)c2c1 [Example 124, 5-(3-fluoro-2-pyridinyl)-3-(6-((3R)-3-piperidinyloxy)-2-pyrazinyl)-1H-indazole] | 7.24 | 6.40 | 7.96 | 7.96 | 
CC(C)Oc1cncc(-c2ccc3[nH]cc(-c4cccc(N)n4)c3c2)n1 [Example 217, 6-(5-(6-(1-methylethoxy)-2-pyrazinyl)-1H-indol-3-yl)-2-pyridinamine] | 5.63 |  | 6.12 | 6.81 | 
CC(C)Oc1cncc(-c2ccc3[nH]cc(-c4cc(N)ccn4)c3c2)n1 [Example 218, 2-(5-(6-(1-methylethoxy)-2-pyrazinyl)-1H-indol-3-yl)-4-pyridinamine] | < 5.52 |  | 6.09 | 6.50 | 
Cc1ccc(-c2c[nH]c3ccc(-c4cncc(OC(C)C)n4)cc23)nc1 [Example 219, 5-(6-(1-methylethoxy)-2-pyrazinyl)-3-(5-methyl-2-pyridinyl)-1H-indole] | < 5.52 |  | 5.95 | 6.16 | 
CC(C)Oc1cncc(-c2ccc3[nH]cc(-c4cccc(N5CCOCC5)n4)c3c2)n1 [Example 220, 5-(6-(1-methylethoxy)-2-pyrazinyl)-3-(6-(4-morpholinyl)-2-pyridinyl)-1H-indole] | < 5.52 |  | 6.31 | 6.48 | 
COc1cnc(-c2c[nH]c3ccc(-c4cncc(OC(C)C)n4)cc23)cn1 [Example 222, 3-(5-methoxy-2-pyrazinyl)-5-(6-(1-methylethoxy)-2-pyrazinyl)-1H-indole] | < 5.52 |  | 6.14 | 6.35 | 
CC(C)Oc1cncc(-c2ccc3[nH]cc(-c4cccc(-n5cccn5)n4)c3c2)n1 [Example 223, 5-(6-(1-methylethoxy)-2-pyrazinyl)-3-(6-(1H-pyrazol-1-yl)-2-pyridinyl)-1H-indole] | < 5.52 |  | 6.85 | 6.82 | 
COc1cncc(-c2c[nH]c3ccc(-c4cncc(OC(C)C)n4)cc23)n1 [Example 224, 3-(6-methoxy-2-pyrazinyl)-5-(6-(1-methylethoxy)-2-pyrazinyl)-1H-indole] | 5.64 |  | 6.67 | 6.90 | 
CC(C)Oc1cncc(-c2ccc3[nH]cc(-c4cccc(OC(C)C)n4)c3c2)n1 [Example 226, 5-(6-(1-methylethoxy)-2-pyrazinyl)-3-(6-(1-methylethoxy)-2-pyridinyl)-1H-indole] | < 5.52 |  | 5.66 | 6.21 | 
CC(C)Oc1cncc(-c2ccc3[nH]cc(-c4cccc(N5CCCC5=O)n4)c3c2)n1 [Example 229, 1-(6-(5-(6-(1-methylethoxy)-2-pyrazinyl)-1H-indol-3-yl)-2-pyridinyl)-2-pyrrolidinone] | < 5.52 |  | 6.60 | 6.83 | 
